Earlier results as cited in patent US20030212274A1, “Novel amorphous form of omeprazole salts” (priority 2003, published 2003).
Like-named read-outs stand apart in the source and are kept apart here.

Experiments:
[1] = storage at +37° C., relative humidity 80%, 6 months (accelerated conditions)

COc1ccc2[nH]c([S+]([O-])Cc3ncc(C)c(OC)c3C)nc2c1 (stereo not drawn) [Omeprazole, 5-methoxy-2-[(4-methoxy-3,5-dimethyl-2-pyridinyl)-methyl]sulfinyl-1H-benzimidazole]
half-life of degradation in water solutions (pH-values less than four): ten | half-life of degradation in water solutions (pH=7): about 14 hours | substance converted to degradation products [1]: about 6%
